# Results published in US20090143279A1 (priority 2007, published 2009).
# Like-named read-outs stand apart in the source and are kept apart here.
# Columns and labels:
# [1] = system: cellular dehydrogenase activity; details: for MTT (composite Z-score): normalized score vs mock-treated (DMSO) wells
# [2] = system: mtOXPHOS transcripts; type: cell-based, mouse; details: for mitoOX (composite Z-score): normalized score vs mock-treated (DMSO) wells
# [3] = system: cytochrome c; type: cell-based, mouse; details: for cyt c (composite Z-score): normalized score vs mock-treated (DMSO) wells
# [4] = system: C2C12 myotubes; details: for Viability (composite Z-score): normalized score vs mock-treated (DMSO) wells
# [5] = system: mitochondrial membrane potential; type: cell-based, mouse; details: for ΔΨm (composite Z-score): normalized score vs mock-treated (DMSO) wells
# [6] = system: OXPHOS gene expression; type: cell-based, mouse; details: for GE-HTS (composite Z-score): normalized score vs mock-treated (DMSO) wells
# [7] = system: nuOXPHOS transcripts; type: cell-based, mouse; details: for nucOX (composite Z-score): normalized score vs mock-treated (DMSO) wells
# [8] = system: reactive oxygen species; type: cell-based, mouse; details: for ROS (composite Z-score): normalized score vs mock-treated (DMSO) wells
# [9] = normalized composite Z-score vs mock-treated (DMSO) wells, Conc 20 μM
# [10] = composite Z-score vs mock-treated (DMSO) wells, Conc 20 μM
# [11] = Table 4, C2C12 myotubes, 48 h, composite Z-score
# [12] = Table 4, C2C12 myotubes, 48 h, JC-1, composite Z-score
# [13] = composite Z-score vs DMSO wells, Conc 20 μM
# [14] = composite Z-score vs DMSO, Conc 20 μM
# [15] = 20 μM, composite Z-score vs DMSO
# Sequence of cytochrome c (P62897 whole entry): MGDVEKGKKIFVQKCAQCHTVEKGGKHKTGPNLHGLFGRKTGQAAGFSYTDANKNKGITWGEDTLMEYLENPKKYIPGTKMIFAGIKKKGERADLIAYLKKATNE
compound,measurement,setting,value
"1,2alpha-epoxydeacetoxydihydrogedunin",MTT,[1]; [9],−2.000
same,mitoOX,[2]; [9],−0.468
same,cyt c,[3]; [9],−0.224
same,Viability,[4]; [9],0.074
same,ΔΨm,[5]; [9],0.210
same,GE-HTS,[6]; [9],−0.921
same,nucOX,[7]; [9],−1.080
same,ROS,[8]; [9],3.350
2-hydroxy-5 (6)epoxy-tetrahydrocaryophyllene,MTT,[1]; [9],−0.836
same,mitoOX,[2]; [9],−0.043
same,cyt c,[3]; [9],0.236
same,Viability,[4]; [9],−0.772
same,ΔΨm,[5]; [9],−0.739
same,GE-HTS,[6]; [9],−0.347
same,nucOX,[7]; [9],−0.447
same,ROS,[8]; [9],0.074
"3,7-epoxycaryophyllan-6-one",MTT,[1]; [9],−0.698
same,mitoOX,[2]; [9],−0.595
same,cyt c,[3]; [9],0.131
same,Viability,[4]; [9],0.433
same,ΔΨm,[5]; [9],−1.003
same,GE-HTS,[6]; [9],−0.812
same,nucOX,[7]; [9],−0.824
same,ROS,[8]; [9],0.603
3-deoxo-3beta-acetoxydeoxydihydrogedunin,MTT,[1]; [10],−1.633
same,mitoOX,[2]; [10],−0.559
same,cyt c,[3]; [10],0.398
same,Viability,[4]; [10],1.066
same,ΔΨm,[5]; [10],1.215
same,GE-HTS,[6]; [10],−0.742
same,nucOX,[7]; [10],−0.791
same,ROS,[8]; [10],1.249
3-deoxo-3beta-hydroxymexicanolide 16-enol ether,MTT,[1]; [10],−1.922
same,mitoOX,[2]; [10],−0.133
same,cyt c,[3]; [10],−0.040
same,Viability,[4]; [10],0.290
same,ΔΨm,[5]; [10],−0.059
same,GE-HTS,[6]; [10],−0.203
same,nucOX,[7]; [10],−0.247
same,ROS,[8]; [10],1.279
3-nor-3-oxopanasinsan-6-ol,MTT,[1]; [9],−0.492
same,mitoOX,[2]; [9],0.004
same,cyt c,[3]; [9],0.864
same,Viability,[4]; [9],0.209
same,ΔΨm,[5]; [9],−0.006
same,GE-HTS,[6]; [9],−0.605
same,nucOX,[7]; [9],−0.831
same,ROS,[8]; [9],0.172
3alpha-hydroxy-3-deoxyangolensic acid methyl ester,MTT,[1]; [10],−1.268
same,mitoOX,[2]; [10],−0.377
same,cyt c,[3]; [10],−0.141
same,Viability,[4]; [10],0.949
same,ΔΨm,[5]; [10],−0.043
same,GE-HTS,[6]; [10],−0.456
same,nucOX,[7]; [10],−0.474
same,ROS,[8]; [10],0.799
3beta-chloroandrostanone,MTT,[1]; [10],−1.203
same,mitoOX,[2]; [10],−0.907
same,cyt c,[3]; [10],1.021
same,Viability,[4]; [10],−0.424
same,ΔΨm,[5]; [10],−0.860
same,GE-HTS,[6]; [10],−1.190
same,nucOX,[7]; [10],−1.192
same,ROS,[8]; [10],−0.077
3beta-hydroxydeoxydesacetoxy-7-oxogedunin,MTT (composite Z-score),[1]; Conc 20 μM,−0.615
same,mitoOX (composite Z-score),[2]; Conc 20 μM,−0.319
same,cyt c (composite Z-score),[3]; Conc 20 μM,0.306
same,Viability (composite Z-score),[4]; Conc 20 μM,0.688
same,ΔΨm (composite Z-score),[5]; Conc 20 μM,−0.064
same,GE-HTS (composite Z-score),[6]; Conc 20 μM,−0.864
same,nucOX (composite Z-score),[7]; Conc 20 μM,−1.027
same,ROS (composite Z-score),[8]; Conc 20 μM,0.662
7-deshydroxypyrogallin-4-carboxylic acid,MTT,[1]; [10],−0.460
same,mitoOX,[2]; [10],−0.770
same,cyt c,[3]; [10],0.419
same,Viability,[4]; [10],0.121
same,ΔΨm,[5]; [10],−1.109
same,GE-HTS,[6]; [10],−0.997
same,nucOX,[7]; [10],−1.039
same,ROS,[8]; [10],−0.210
12a-hydroxy-5-deoxydehydromunduserone [reference compound],MTT,[1]; [11],−1.976
same,MTT,[1]; [9],−1.976
same,mitoOX,[2]; [9],0.239
same,cyt c,[3]; [9],−0.179
same,Viability,[4]; [11],−0.940
same,Viability,[4]; [9],−0.940
same,ΔΨm,[5]; [12],−0.179
same,ΔΨm,[5]; [9],−0.179
same,GE-HTS,[6]; [9],0.211
same,nucOX,[7]; [9],0.193
same,ROS,[8]; [11],0.823
same,ROS,[8]; [9],0.823
C#CC1(O)CC[C@H]2[C@@H]3CCC4=CC(=O)CC[C@@H]4[C@H]3CC[C@@]21CC (mixture of isomers) [norgestrel],MTT,[1]; [13],−0.761
same,mitoOX,[2]; [13],−0.187
same,cyt c,[3]; [13],−0.027
same,Viability,[4]; [13],−0.966
same,ΔΨm,[5]; [13],−0.965
same,GE-HTS,[6]; [13],−0.225
same,nucOX,[7]; [13],−0.183
same,ROS,[8]; [13],0.831
"C=CC(C)(O)CCC=C(C)C (single isomer, unassigned; (+)) [(+)-linalool]",MTT (composite Z-score),[1]; Conc 20 μM,−1.338
same,mitoOX (composite Z-score),[2]; Conc 20 μM,−0.342
same,cyt c (composite Z-score),[3]; Conc 20 μM,0.690
same,Viability (composite Z-score),[4]; Conc 20 μM,−0.653
same,ΔΨm (composite Z-score),[5]; Conc 20 μM,−0.810
same,GE-HTS (composite Z-score),[6]; Conc 20 μM,−0.007
same,nucOX (composite Z-score),[7]; Conc 20 μM,0.131
same,ROS (composite Z-score),[8]; Conc 20 μM,0.481
"O=C1c2ccc(O)cc2OC(c2cc(O)c(O)c(O)c2)C1O (stereo in doubt) [dihydrorobinetin, reference compound]",MTT (composite Z-score),[1]; Conc 20 μM,−1.259
same,MTT,[1]; [11],−1.259
same,mitoOX (composite Z-score),[2]; Conc 20 μM,−1.124
same,cyt c (composite Z-score),[3]; Conc 20 μM,0.082
same,Viability (composite Z-score),[4]; Conc 20 μM,−1.070
same,Viability,[4]; [11],−1.070
same,ΔΨm (composite Z-score),[5]; Conc 20 μM,−3.396
same,ΔΨm,[5]; [12],−3.396
same,GE-HTS (composite Z-score),[6]; Conc 20 μM,−1.192
same,nucOX (composite Z-score),[7]; Conc 20 μM,−1.089
same,ROS (composite Z-score),[8]; Conc 20 μM,−0.393
same,ROS,[8]; [11],−0.393
C[C@H](C[C@@H](O)[C@@H]1OC1(C)C)[C@@H]1CC[C@]2(C)C3=CC[C@H]4C(C)(C)C(=O)CC[C@]4(C)[C@H]3CC[C@@]12C (stereo in doubt) [niloticin],MTT,[1]; [10],−0.481
same,mitoOX,[2]; [10],0.151
same,cyt c,[3]; [10],0.136
same,Viability,[4]; [10],1.304
same,ΔΨm,[5]; [10],0.461
same,GE-HTS,[6]; [10],0.543
same,nucOX,[7]; [10],0.648
same,ROS,[8]; [10],0.817
CC[C@@H](C)C(=O)O[C@H]1[C@H](O)[C@H]2[C@@H](CN3C[C@@H](C)CC[C@H]3[C@@]2(C)O)[C@@H]2C[C@]34O[C@]5(O)[C@@H](OC(=O)[C@](C)(O)[C@@H](C)O)CC[C@@]3(C)[C@@H]5[C@@H](OC(C)=O)[C@@H](OC(C)=O)[C@H]4[C@@]21O (stereo in doubt) [protoveratrine B],MTT,[1]; [14],0.904
same,mitoOX,[2]; [14],−0.096
same,cyt c,[3]; [14],−1.085
same,Viability,[4]; [14],0.708
same,ΔΨm,[5]; [14],0.942
same,GE-HTS,[6]; [14],0.018
same,nucOX,[7]; [14],0.058
same,ROS,[8]; [14],0.244
CC(=O)O[C@@H]1CC2C(C)(C)C(=O)[C@@H]3O[C@@H]3[C@]2(C)C2CC[C@]3(C)C(=CC(=O)O[C@H]3c3ccoc3)[C@@]21C (stereo partly drawn) [1 (2)alpha-epoxydeoxydihydrogedunin],MTT,[1]; [9],−1.048
same,mitoOX,[2]; [9],−0.539
same,cyt c,[3]; [9],0.022
same,Viability,[4]; [9],0.015
same,ΔΨm,[5]; [9],0.074
same,GE-HTS,[6]; [9],−0.801
same,nucOX,[7]; [9],−0.831
same,ROS,[8]; [9],2.784
"CC1(C)C2CC(=O)[C@]3(C)C(CC[C@@]4(C)[C@H](c5ccoc5)OC(=O)C5OC543)[C@@]2(C)[C@@H](O)C[C@H]1O (stereo partly drawn) [1,3-dideacetyl-7-deacetoxy-7-oxokhivorin]",MTT,[1]; [9],−1.399
same,mitoOX,[2]; [9],−0.497
same,cyt c,[3]; [9],0.226
same,Viability,[4]; [9],0.190
same,ΔΨm,[5]; [9],1.329
same,GE-HTS,[6]; [9],−0.665
same,nucOX,[7]; [9],−0.716
same,ROS,[8]; [9],1.267
"CC(=O)O[C@@H]1C[C@H]2C(C)(C)[C@H](O)C[C@H](O)[C@]2(C)[C@H]2CC[C@@]3(C)[C@H](c4ccoc4)OC(=O)[C@H]4O[C@]43[C@@]21C [1,3-dideacetylkhivorin]",MTT,[1]; [14],−0.622
same,mitoOX,[2]; [14],−1.275
same,cyt c,[3]; [14],0.887
same,Viability,[4]; [14],0.507
same,ΔΨm,[5]; [14],0.051
same,GE-HTS,[6]; [14],−0.693
same,nucOX,[7]; [14],−0.349
same,ROS,[8]; [14],0.963
"Cc1cc(O)c2c(c1O)C(=O)c1c(O)cc(C)c(O)c1C2=O [1,4,5,8-tetrahydroxy-2,6-dimethylanthroquinone, reference compound]",MTT,[1]; [11],−0.344
same,MTT,[1]; [14],−0.344
same,mitoOX,[2]; [14],−0.739
same,cyt c,[3]; [14],0.005
same,Viability,[4]; [11],−0.853
same,Viability,[4]; [14],−0.853
same,ΔΨm,[5]; [12],−0.662
same,ΔΨm,[5]; [14],−0.662
same,GE-HTS,[6]; [14],−1.123
same,nucOX,[7]; [14],−1.178
same,ROS,[8]; [11],0.772
same,ROS,[8]; [14],0.772
"CC(=O)O[C@@H]1CC(=O)[C@@]2(C)C(CC(=O)[C@]3(C)C2CC[C@@]2(C)[C@H](c4ccoc4)OC(=O)C4OC423)C1(C)C (stereo partly drawn) [1,7-dideacetoxy-1,7-dioxokhivorin]",MTT,[1]; [10],−0.142
same,mitoOX,[2]; [10],−0.355
same,cyt c,[3]; [10],0.539
same,Viability,[4]; [10],0.042
same,ΔΨm,[5]; [10],−0.535
same,GE-HTS,[6]; [10],−0.558
same,nucOX,[7]; [10],−0.585
same,ROS,[8]; [10],0.352
"CC1(C)C2C[C@@H](O)[C@]3(C)C(CC[C@@]4(C)[C@H](c5ccoc5)OC(=O)C5OC543)[C@@]2(C)C(=O)C[C@H]1O (stereo partly drawn) [1-deacetoxy-1-oxo-3,7-dideacetylkhivorin]",MTT (composite Z-score),[1]; Conc 20 μM,−1.776
same,mitoOX (composite Z-score),[2]; Conc 20 μM,−0.020
same,cyt c (composite Z-score),[3]; Conc 20 μM,−0.411
same,Viability (composite Z-score),[4]; Conc 20 μM,−0.413
same,ΔΨm (composite Z-score),[5]; Conc 20 μM,−0.321
same,GE-HTS (composite Z-score),[6]; Conc 20 μM,−0.525
same,nucOX (composite Z-score),[7]; Conc 20 μM,−0.704
same,ROS (composite Z-score),[8]; Conc 20 μM,0.626
CC1(C)[C@H]2CC[C@@]1(C)C(=O)C2 [1r-camphor],MTT,[1]; [15],−0.402
same,mitoOX,[2]; [15],0.023
same,cyt c,[3]; [15],0.372
same,Viability,[4]; [15],−0.744
same,ΔΨm,[5]; [15],−0.794
same,GE-HTS,[6]; [15],0.073
same,nucOX,[7]; [15],0.107
same,ROS,[8]; [15],0.042
"COc1ccc2c(c1OC)C(=O)O[C@@H]2[C@H]1c2cc3c(cc2CCN1C)OCO3 [1s,9r-hydrastine]",MTT,[1]; [14],−0.539
same,mitoOX,[2]; [14],−0.341
same,cyt c,[3]; [14],0.359
same,Viability,[4]; [14],0.650
same,ΔΨm,[5],−0.849
same,GE-HTS,[6]; [14],−0.152
same,nucOX,[7]; [14],−0.041
same,ROS,[8]; [14],−0.029
